Patent publication US6360588B1, “Materials and methods for the analysis of substances passing through a membrane” (priority 1998, dated 2002)

Assay: diffusion through polydimethylsiloxane membrane (MAPI, electrospray mass spectrometry detection)
Type: physicochemical
Settings: polydimethylsiloxane membrane 0.01 to 0.05 inches thick; result in words, curves in FIGS. 8-11
From the text: In operation, once the membrane and spacer are in place and the top portion 50 and bottom plate 56 are secured, a substance under study can be placed in contact with the first side of the membrane. Carrier fluid can be flowing through volume 64 and to a detection means. As the substance diffuses through the membrane and exits the second side of the membrane, it can be carried to the detection apparatus for analysis. In this way, an accurate time dependent curve can be generated as to the amounts of the substance under study exiting the second side of the membrane. This example illustrates the results from diffusion of a variety of substances through polydimethylsiloxane membrane obtained from PILLAR SCIENTIFIC, ranging in thickness from 0.01 inches to 0.05 inches. A mass spectrometer was used as a detection apparatus with electrospray ionization utilized to ionize the sample for detection in the mass spectrometer.

Clc1cccc(Cl)c1N=C1NCCN1 [clonidine]
diffusion through the membrane (relative abundance exiting the second side as a function of time): clonidine diffusing through the membrane

CCOC(=O)c1ccc(O)cc1 [ethyl paraben]
diffusion through the membrane (relative abundance exiting the second side as a function of time): diffusion of ethyl paraben through the polydimethylsiloxane membrane

COC(=O)c1ccc(O)cc1 [methyl paraben]
diffusion through the membrane (relative abundance exiting the second side as a function of time): diffusion of methyl paraben through the polydimethylsiloxane membrane

CCCCOC(=O)c1ccc(O)cc1 [n-butyl paraben]
diffusion through the membrane (relative abundance exiting the second side as a function of time): diffusion of n-butyl paraben through the polydimethylsiloxane membrane
